Results from patent publication US3987047A, “Tetrahydro-azepinoquinolines” (Boehringer Ingelheim GmbH, priority 1973, dated 1976).
Counter-ions that a name gives are not always drawn.

Legend:
[1] = tested on: Male albino rats; assay: Anorectic test (effect on food intake of fasted rats); format: in vivo; details: sc; rat; dose which reduced the food intake by 50% over the reference value; 2 hour test period
Method: Male albino rats with starting weights from 200 to 250 gm, kept in so-called makrolon-cages, three to a cage, in an air-conditioned room at a temperature of 22 ± 1° C and about 50 % relative humidity. Between test runs, food (standard feed Altromin R) and drinking water were freely accessible.
A combination metabolism and motility test cage, described by J. M. van ROSSUM and F. SIMONS (Psychopharmacologia 14, 248, 1969) was used. With the aid of this device it is possible to measure the food intake and motoric activity on the same test animal.
For effecting and evaluating this test, a modified version of the method of J. SPENGLER and P. WASER [Arch. exp. Path. Pharmcol. 237, 171 (1959)] was used. A test group consisting of 6 ats was used for the test over a 3months' period, once a week, always on the same day of the week and at the same time of day. In preparation for the test, the animals were fasted for 24 hours while they had free access to drinking water. Then, they were put singly into the above-mentioned test cage for 2 hours, where a preweighed quantity of feed (Altromin-R, pulverized) and drinking water was offered ad libitum. Scattered feed was collected carefully, the consumed quantity of feed was determined by weighing the remaining quantity, and the food intake was calculated in terms of grams per 100 gm body weight. the test compound was injected subcutaneously or administered orally by esophageal sound at the beginning of the test period. […] Therefore, each group served as its own control. In the control tests the rats were given at the beginning of the 2 hour test period, 0.1 ml/100 gm water orally or 0.1 ml/100 gm physiological NaCl-solution subcutaneously. Before the test runs, 3 to 4 control tests were made and repeated later at intervals of 5 weeks. The average amount of the food intake which the animals had shown in the control tests was taken as the reference value. The anorectic activity of the test compound was expressed in terms of the percentage reduction of this reference value, and the median anorectic dose (ED50), i.e. the dose which reduced the food intake by 50% over the reference value was graphically calculated.

[2] = Acute toxicity (LD50 in mice); details: in vivo, sc; for selectivity ratio: LD50 mouse s.c. / anorectic ED50 rat s.c., read-out: Therapeutic ratio LD50/ED50; for LD50 at 24 h: mouse, 24 hours observation
Method: Groups of 10 male mice of the NMRI-strain with body weights between 18 and 30 gm. The animals were put individually into cylindrical jars and received by subcutaneous injection under the dorsal skin gradually increasing doses from 0.1 to 0.2 ml/10 gm of body weight of the test compound. The limits for the test dosage range had previously been determined on individual mice. The symptoms of poisoning were recorded. After an observation period of 24 hours the dead animals were counted. The determination of the median lethal dose (LD50) according to G. KARBER [Arch. exper. Path. Pharmak. 162, 480, (1931)] concluded the test.

Compound | ED50 [1] | selectivity ratio [2] | LD50 at 24 h [2]
CCN1CCc2nc3ccccc3c(C)c2CC1.Cl.Cl [A, 3-ethyl-1,2,4,5-tetrahydro-11-methyl-3H-azepino[4,5-b]quinoline dihydrochloride] | 1.9 mg/kg | 95 | 180 mg/kg
Cc1c2c(nc3ccccc13)CCCNC2.Cl.Cl [B, 2,3,4,5-tetrahydro-11-methyl-1H-azepino[4,3-b]quinoline dihydrochloride] | 1.1 mg/kg | 177 | 195 mg/kg
Cc1c2c(nc3ccccc13)CCNCC2.Cl.Cl [C, 1,2,4,5-tetrahydro-11-methyl-3H-azepino[4,5-b]quinoline dihydrochloride] | 0.2 mg/kg | 415 | 83 mg/kg
CCCc1c2c(nc3ccccc13)CCNCC2.Cl.Cl [Compound E, 1,2,4,5-tetrahydro-11-propyl-3H-azepino[4,5-b]quinoline dihydrochloride] | 0.9 mg/kg | 164 | 148 mg/kg
CCOC(=O)N1CCc2nc3ccccc3c(C)c2CC1 [D, 1,2,4,5-tetrahydro-11-methyl-3-azepino[4,5-b]quinoline-carboxylic acid ethyl ester] | 0.8 mg/kg | 1010 | 810 mg/kg
Cc1c2c(nc3ccc(Cl)cc13)CCNCC2.Cl.Cl [F, 9-chloro-1,2,4,5-tetrahydro-11-methyl-3H-azepino[4,5-b]quinoline dihydrochloride] | 1.5 mg/kg | 143 | 215 mg/kg
Cc1c2c([n+]([O-])c3ccccc13)CCNCC2 [G, 1,2,4,5-tetrahydro-11-methyl-3H-azepino[4,5-b]quinoline-6-N-oxide hydrochloride] | 0.8 mg/kg | 394 | 315 mg/kg
Cc1c2c(nc3ccccc13)C(O)CNCC2.Cl.Cl (stereo not drawn) [H, 5-hydroxy-1,2,4,5-tetrahydro-11-methyl-3H-azepino[4,5-b]quinoline dihydrochloride] | 0.3 mg/kg | 420 | 126 mg/kg
CCCN1CCc2nc3ccccc3c(C)c2CC1.Cl.Cl [I, 1,2,4,5-tetrahydro-11-methyl-3propyl-3H-azepino[4,5-b]quinoline dihydrochloride] | 0.9 mg/kg | – | –
Cc1c2c(nc3ccccc13)CCN(C(=O)OC(C)(C)C)CC2.Cl [J, 1,2,4,5-tetrahydro-11-methyl-3azepino[4,5-b]quinoline-carboxylic acid tert.butyl ester hydrochloride] | 1.1 mg/kg | – | –
Cc1c2c(nc3cccc(Cl)c13)CCNCC2 [K, 10-chloro-1,2,4,5-tetrahydro-11-methyl-3H-azepino[4,5-b]quinoline dihydrochloide] | 1.3 mg/kg | – | –
CCOC(=O)N1CCc2c(nc3ccccc3c2C)C(O)C1 (stereo not drawn) [L, 5-hydroxy-1,2,4,5-tetrahydro-11-methyl-3-azepino[4,5-b]quinoline-carboxylic acid ethyl ester] | 4 mg/kg | – | –
Cc1c2c(nc3ccccc13)CCN(CC(C)O)CC2.Cl.Cl (stereo not drawn) [M, 3-(2-hydroxy-propyl)-1,2,4,5-tetrahydro-11-methyl-3H-azepino[4,5-b]quinoline dihydrochloride] | 2 mg/kg | – | –
COC(=O)N1CCc2nc3ccccc3c(C)c2CC1 [N, 1,2,4,5-tetrahydro-11-methyl-3-azepino[4,5-b]quinoline-carboxylic acid methyl ester] | 1.8 mg/kg | – | –
